According to patent US20100267561A1, “HERBICIDAL PYRIDAZINONE DERIVATIVES” (priority 2007, published 2010):

Columns and labels:
Assay in all cases: Test E pre-/postemergence plant response
Assay type in all cases: in vivo
[1] = system: purple nutsedge (Cyperus rotundus); conditions: scale 0 to 100
Summary of the method: (§1)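 Formulated in a non-phytotoxic solvent mixture containing surfactant, compound was applied to soil at planting or sprayed on emerged plants at the 1- to 4-leaf stage. Visual comparison with controls followed 14 to 21 days in the greenhouse; 0 = no effect, 100 = complete control.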

[2] = system: annual bluegrass (Poa annua); conditions: scale 0 to 100
Summary of the method: as §1

[3] = system: johnsongrass (Sorghum halepense); conditions: scale 0 to 100
Summary of the method: as §1

[4] = system: broadleaf signalgrass (Brachiaria platyphylla); conditions: scale 0 to 100
Summary of the method: as §1

[5] = system: naked crabgrass (Digitaria nuda); conditions: scale 0 to 100
Summary of the method: as §1

[6] = system: itchgrass (Rottboellia cochinchinensis); conditions: scale 0 to 100
Summary of the method: as §1

[7] = system: pitted morningglory (Ipomoea lacunosa); conditions: scale 0 to 100
Summary of the method: as §1

[8] = system: common chickweed (Stellaria media); conditions: Postemergence, scale 0 to 100
Summary of the method: as §1

[9] = system: green foxtail (Setaria viridis); conditions: scale 0 to 100
Summary of the method: as §1

[10] = system: quackgrass (Elytrigia repens); conditions: scale 0 to 100
Summary of the method: as §1

[11] = system: surinam grass (Brachiaria decumbens); conditions: scale 0 to 100
Summary of the method: as §1

[12] = system: common mallow (Malva sylvestris); conditions: Postemergence, scale 0 to 100
Summary of the method: as §1

[13] = system: bermudagrass (Cynodon dactylon); conditions: scale 0 to 100
Summary of the method: as §1

[14] = system: Italian ryegrass (Lolium multiflorum); conditions: scale 0 to 100
Summary of the method: as §1

[15] = system: large crabgrass (Digitaria sanguinalis); conditions: scale 0 to 100
Summary of the method: as §1

CCc1cc(-c2ccc(Cl)cc2)nn1-c1c(OC(=O)C(C)(C)C)cnn(C)c1=O [Compound 40]
Plant response rating, Nutsedge, Purple ([1]; 16 g ai/ha, Preemergence): 0
Plant response rating, Nutsedge, Purple ([1]; 31 g ai/ha, Preemergence): 0
Plant response rating, Nutsedge, Purple ([1]; 62 g ai/ha, Preemergence): 0
Plant response rating, Nutsedge, Purple ([1]; Postemergence, 8 g ai/ha): 0
Plant response rating, Nutsedge, Purple ([1]; Postemergence, 16 g ai/ha): 0
Plant response rating, Nutsedge, Purple ([1]; Postemergence, 31 g ai/ha): 0
Plant response rating, Nutsedge, Purple ([1]; Postemergence, 62 g ai/ha): 0
Plant response rating, Bluegrass ([2]; 8 g ai/ha, Preemergence): 60
Plant response rating, Bluegrass ([2]; 16 g ai/ha, Preemergence): 90
Plant response rating, Bluegrass ([2]; 62 g ai/ha, Preemergence): 95
Plant response rating, Bluegrass ([2]; Postemergence, 8 g ai/ha): 0
Plant response rating, Bluegrass ([2]; Postemergence, 16 g ai/ha): 0
Plant response rating, Bluegrass ([2]; Postemergence, 31 g ai/ha): 15
Plant response rating, Bluegrass ([2]; Postemergence, 62 g ai/ha): 15
Plant response rating, Johnsongrass ([3]; 16 g ai/ha, Preemergence): 75
Plant response rating, Johnsongrass ([3]; 31 g ai/ha, Preemergence): 75
Plant response rating, Johnsongrass ([3]; 62 g ai/ha, Preemergence): 98
Plant response rating, Johnsongrass ([3]; Postemergence, 8 g ai/ha): 60
Plant response rating, Johnsongrass ([3]; Postemergence, 16 g ai/ha): 60
Plant response rating, Johnsongrass ([3]; Postemergence, 31 g ai/ha): 90
Plant response rating, Johnsongrass ([3]; Postemergence, 62 g ai/ha): 98
Plant response rating, Signalgrass ([4]; 16 g ai/ha, Preemergence): 95
Plant response rating, Signalgrass ([4]; 31 g ai/ha, Preemergence): 98
Plant response rating, Signalgrass ([4]; 62 g ai/ha, Preemergence): 100
Plant response rating, Signalgrass ([4]; Postemergence, 8 g ai/ha): 75
Plant response rating, Signalgrass ([4]; Postemergence, 16 g ai/ha): 90
Plant response rating, Signalgrass ([4]; Postemergence, 31 g ai/ha): 95
Plant response rating, Signalgrass ([4]; Postemergence, 62 g ai/ha): 100
Plant response rating, Crabgrass, Naked ([5]; 8 g ai/ha, Preemergence): 90
Plant response rating, Crabgrass, Naked ([5]; 16 g ai/ha, Preemergence): 90
Plant response rating, Crabgrass, Naked ([5]; 31 g ai/ha, Preemergence): 100
Plant response rating, Crabgrass, Naked ([5]; 62 g ai/ha, Preemergence): 100
Plant response rating, Crabgrass, Naked ([5]; Postemergence, 8 g ai/ha): 50
Plant response rating, Crabgrass, Naked ([5]; Postemergence, 16 g ai/ha): 75
Plant response rating, Crabgrass, Naked ([5]; Postemergence, 31 g ai/ha): 95
Plant response rating, Crabgrass, Naked ([5]; Postemergence, 62 g ai/ha): 100
Plant response rating, Itchgrass ([6]; 16 g ai/ha, Preemergence): 60
Plant response rating, Itchgrass ([6]; 31 g ai/ha, Preemergence): 75
Plant response rating, Itchgrass ([6]; 62 g ai/ha, Preemergence): 85
Plant response rating, Itchgrass ([6]; Postemergence, 8 g ai/ha): 40
Plant response rating, Itchgrass ([6]; Postemergence, 16 g ai/ha): 40
Plant response rating, Itchgrass ([6]; Postemergence, 31 g ai/ha): 80
Plant response rating, Itchgrass ([6]; Postemergence, 62 g ai/ha): 80
Plant response rating, Morningglory ([7]; 16 g ai/ha, Preemergence): 0
Plant response rating, Morningglory ([7]; 31 g ai/ha, Preemergence): 0
Plant response rating, Morningglory ([7]; 62 g ai/ha, Preemergence): 0
Plant response rating, Morningglory ([7]; Postemergence, 8 g ai/ha): 0
Plant response rating, Morningglory ([7]; Postemergence, 16 g ai/ha): 0
Plant response rating, Morningglory ([7]; Postemergence, 31 g ai/ha): 0
Plant response rating, Morningglory ([7]; Postemergence, 62 g ai/ha): 0
Plant response rating, Chickweed ([8]; 8 g ai/ha): 0
Plant response rating, Chickweed ([8]; 16 g ai/ha): 0
Plant response rating, Chickweed ([8]; 31 g ai/ha): 0
Plant response rating, Foxtail, Green ([9]; 8 g ai/ha, Preemergence): 40
Plant response rating, Foxtail, Green ([9]; 16 g ai/ha, Preemergence): 75
Plant response rating, Foxtail, Green ([9]; 31 g ai/ha, Preemergence): 98
Plant response rating, Foxtail, Green ([9]; 62 g ai/ha, Preemergence): 100
Plant response rating, Foxtail, Green ([9]; Postemergence, 8 g ai/ha): 70
Plant response rating, Foxtail, Green ([9]; Postemergence, 16 g ai/ha): 80
Plant response rating, Foxtail, Green ([9]; Postemergence, 31 g ai/ha): 95
Plant response rating, Foxtail, Green ([9]; Postemergence, 62 g ai/ha): 98
Plant response rating, Quackgrass ([10]; 16 g ai/ha, Preemergence): 60
Plant response rating, Quackgrass ([10]; 31 g ai/ha, Preemergence): 80
Plant response rating, Quackgrass ([10]; 62 g ai/ha, Preemergence): 90
Plant response rating, Quackgrass ([10]; Postemergence, 8 g ai/ha): 30
Plant response rating, Quackgrass ([10]; Postemergence, 16 g ai/ha): 50
Plant response rating, Quackgrass ([10]; Postemergence, 31 g ai/ha): 70
Plant response rating, Quackgrass ([10]; Postemergence, 62 g ai/ha): 95
Plant response rating, Surinam Grass ([11]; 16 g ai/ha, Preemergence): 100
Plant response rating, Surinam Grass ([11]; 31 g ai/ha, Preemergence): 100
Plant response rating, Surinam Grass ([11]; 62 g ai/ha, Preemergence): 100
Plant response rating, Surinam Grass ([11]; Postemergence, 8 g ai/ha): 90
Plant response rating, Surinam Grass ([11]; Postemergence, 16 g ai/ha): 90
Plant response rating, Surinam Grass ([11]; Postemergence, 31 g ai/ha): 100
Plant response rating, Surinam Grass ([11]; Postemergence, 62 g ai/ha): 100
Plant response rating, Mallow ([12]; 8 g ai/ha): 0
Plant response rating, Mallow ([12]; 16 g ai/ha): 0
Plant response rating, Mallow ([12]; 31 g ai/ha): 0
Plant response rating, Mallow ([12]; 62 g ai/ha): 0
Plant response rating, Bermudagrass ([13]; 8 g ai/ha, Preemergence): 40
Plant response rating, Bermudagrass ([13]; 16 g ai/ha, Preemergence): 80
Plant response rating, Bermudagrass ([13]; 31 g ai/ha, Preemergence): 98
Plant response rating, Bermudagrass ([13]; 62 g ai/ha, Preemergence): 100
Plant response rating, Bermudagrass ([13]; Postemergence, 8 g ai/ha): 30
Plant response rating, Bermudagrass ([13]; Postemergence, 16 g ai/ha): 50
Plant response rating, Bermudagrass ([13]; Postemergence, 31 g ai/ha): 60
Plant response rating, Bermudagrass ([13]; Postemergence, 62 g ai/ha): 70
Plant response rating, Ryegrass, Italian ([14]; 16 g ai/ha, Preemergence): 98
Plant response rating, Ryegrass, Italian ([14]; 31 g ai/ha, Preemergence): 100
Plant response rating, Ryegrass, Italian ([14]; 62 g ai/ha, Preemergence): 100
Plant response rating, Ryegrass, Italian ([14]; Postemergence, 8 g ai/ha): 90
Plant response rating, Ryegrass, Italian ([14]; Postemergence, 16 g ai/ha): 90
Plant response rating, Ryegrass, Italian ([14]; Postemergence, 31 g ai/ha): 100
Plant response rating, Ryegrass, Italian ([14]; Postemergence, 62 g ai/ha): 100
Plant response rating, Crabgrass, Large ([15]; 8 g ai/ha, Preemergence): 50
Plant response rating, Crabgrass, Large ([15]; 16 g ai/ha, Preemergence): 70
Plant response rating, Crabgrass, Large ([15]; 31 g ai/ha, Preemergence): 100
Plant response rating, Crabgrass, Large ([15]; 62 g ai/ha, Preemergence): 100
Plant response rating, Crabgrass, Large ([15]; Postemergence, 8 g ai/ha): 75
Plant response rating, Crabgrass, Large ([15]; Postemergence, 16 g ai/ha): 85
Plant response rating, Crabgrass, Large ([15]; Postemergence, 31 g ai/ha): 90
Plant response rating, Crabgrass, Large ([15]; Postemergence, 62 g ai/ha): 95
